Experimental data as given in the CheMixHub viscosity set.
“And” between values parts separate entries of the source, which are not always exact repeats. Equal values may be shown once.

Experiment: xn = mol fraction of the nth substance listed

CC(C)O + O
Conditions | viscosity
308.15 K, 101 kPa, x2 = 0.26 | 1.616 mPa·s
308.15 K, 101 kPa, x2 = 0.4678 | 1.856 mPa·s
308.15 K, 101 kPa, x2 = 0.6079 | 2.072 mPa·s
308.15 K, 101 kPa, x2 = 0.685 | 2.169 mPa·s
308.15 K, 101 kPa, x2 = 0.7249 | 2.178 mPa·s
308.15 K, 101 kPa, x2 = 0.805 | 2.088 mPa·s
308.15 K, 101 kPa, x2 = 0.89 | 1.675 mPa·s
308.15 K, 101 kPa, x2 = 0.9549 | 1.23 mPa·s
313.15 K, 101 kPa, x1 = 0.01 | 0.733 mPa·s
313.15 K, 101 kPa, x1 = 0.02 | 0.823 mPa·s
313.15 K, 101 kPa, x1 = 0.032 | 0.933 mPa·s
313.15 K, 101 kPa, x1 = 0.05 | 1.098 mPa·s
313.15 K, 101 kPa, x1 = 0.07069 | 1.27 mPa·s
313.15 K, 101 kPa, x1 = 0.1 | 1.458 mPa·s
313.15 K, 101 kPa, x1 = 0.11 | 1.495 mPa·s
313.15 K, 101 kPa, x1 = 0.2 | 1.789 mPa·s
313.15 K, 101 kPa, x1 = 0.23 | 1.821 mPa·s
313.15 K, 101 kPa, x1 = 0.41 | 1.731 mPa·s
313.15 K, 101 kPa, x2 = 0.1049 | 1.365 mPa·s
313.15 K, 101 kPa, x2 = 0.26 | 1.412 mPa·s
313.15 K, 101 kPa, x2 = 0.4678 | 1.604 mPa·s
313.15 K, 101 kPa, x2 = 0.6079 | 1.788 mPa·s
313.15 K, 101 kPa, x2 = 0.685 | 1.855 mPa·s
313.15 K, 101 kPa, x2 = 0.7249 | 1.858 mPa·s
313.15 K, 101 kPa, x2 = 0.805 | 1.781 mPa·s
313.15 K, 101 kPa, x2 = 0.89 | 1.447 mPa·s
313.15 K, 101 kPa, x2 = 0.9549 | 1.076 mPa·s
313.15 K, 101.33 kPa, x1 = 0.015 | 0.7848 mPa·s
313.15 K, 101.33 kPa, x1 = 0.05 | 1.113 mPa·s
313.15 K, 101.33 kPa, x1 = 0.075 | 1.292 mPa·s
313.15 K, 101.33 kPa, x1 = 0.1 | 1.453 mPa·s
313.15 K, 101.33 kPa, x1 = 0.15 | 1.665 mPa·s
313.15 K, 101.33 kPa, x1 = 0.2 | 1.777 mPa·s
313.15 K, 101.33 kPa, x1 = 0.25 | 1.823 mPa·s
313.15 K, 101.33 kPa, x1 = 0.3 | 1.822 mPa·s
313.15 K, 101.33 kPa, x1 = 0.4 | 1.756 mPa·s
313.15 K, 101.33 kPa, x1 = 0.5 | 1.649 mPa·s
313.15 K, 101.33 kPa, x1 = 0.6 | 1.539 mPa·s
313.15 K, 101.33 kPa, x1 = 0.7 | 1.446 mPa·s
313.15 K, 101.33 kPa, x1 = 0.8 | 1.375 mPa·s
313.15 K, 101.33 kPa, x1 = 0.85 | 1.35 mPa·s
313.15 K, 101.33 kPa, x1 = 0.9 | 1.327 mPa·s
313.15 K, 101.33 kPa, x1 = 0.925 | 1.331 mPa·s
313.15 K, 101.33 kPa, x1 = 0.95 | 1.332 mPa·s
313.15 K, 101.33 kPa, x1 = 0.975 | 1.336 mPa·s
318.15 K, 101 kPa, x1 = 0.01 | 0.664 mPa·s
318.15 K, 101 kPa, x1 = 0.02 | 0.739 mPa·s
318.15 K, 101 kPa, x1 = 0.032 | 0.836 mPa·s
318.15 K, 101 kPa, x1 = 0.05 | 0.966 mPa·s
318.15 K, 101 kPa, x1 = 0.07069 | 1.103 mPa·s
318.15 K, 101 kPa, x1 = 0.1 | 1.261 mPa·s
318.15 K, 101 kPa, x1 = 0.11 | 1.315 mPa·s
318.15 K, 101 kPa, x1 = 0.2 | 1.539 mPa·s
318.15 K, 101 kPa, x1 = 0.23 | 1.579 mPa·s
318.15 K, 101 kPa, x1 = 0.41 | 1.484 mPa·s
318.15 K, 101 kPa, x2 = 0.1049 | 1.182 mPa·s
318.15 K, 101 kPa, x2 = 0.26 | 1.237 mPa·s
318.15 K, 101 kPa, x2 = 0.4678 | 1.397 mPa·s
318.15 K, 101 kPa, x2 = 0.6079 | 1.561 mPa·s
318.15 K, 101 kPa, x2 = 0.685 | 1.604 mPa·s
318.15 K, 101 kPa, x2 = 0.7249 | 1.598 mPa·s
318.15 K, 101 kPa, x2 = 0.805 | 1.539 mPa·s
318.15 K, 101 kPa, x2 = 0.89 | 1.255 mPa·s
318.15 K, 101 kPa, x2 = 0.9549 | 0.95 mPa·s
323.15 K, 100 kPa, x1 = 0.2 | 1.375 mPa·s and 1.3 mPa·s
323.15 K, 100 kPa, x1 = 0.3 | 1.387 mPa·s
323.15 K, 100 kPa, x2 = 0.1 | 1.03 mPa·s
323.15 K, 100 kPa, x2 = 0.2 | 1.08 mPa·s
323.15 K, 100 kPa, x2 = 0.3 | 1.11 mPa·s
323.15 K, 100 kPa, x2 = 0.4 | 1.21 mPa·s
323.15 K, 100 kPa, x2 = 0.5 | 1.26 mPa·s
323.15 K, 100 kPa, x2 = 0.6 | 1.37 mPa·s
323.15 K, 100 kPa, x2 = 0.7 | 1.37 mPa·s
323.15 K, 100 kPa, x2 = 0.8 | 1.37 mPa·s
323.15 K, 100 kPa, x2 = 0.9 | 1.14 mPa·s
323.15 K, 101 kPa, x1 = 0.01 | 0.604 mPa·s
323.15 K, 101 kPa, x1 = 0.02 | 0.668 mPa·s
323.15 K, 101 kPa, x1 = 0.05 | 0.856 mPa·s
323.15 K, 101 kPa, x1 = 0.07069 | 0.969 mPa·s
323.15 K, 101 kPa, x1 = 0.1 | 1.101 mPa·s
